Measurements published in patent publication US20240263147A1, “CARDIAC ORGANOID AND ANTI-ELECTRO-MITOCHONDRIAL DESYNCHRONIZATION THERAPY” (YISSUM RESEARCH DEVELOPMENT COMPANY OF THE HEBREW …, priority 2021, published 2024).
Entries after “also recorded” stand apart in the source; their conditions may differ.

Tests used:
[1] = known cardiac side effects of therapeutic agents; cited from earlier work
[2] = tested on: vascularized cardiac organoids; experiment: Integrated metabolic-electro-mechanical sensor chip: simultaneous contraction, field potential and interstitial oxygen; assay type: cell-based, human; settings: 10 μM Blebbistatin
[3] = tested on: vascularized cardiac organoids; experiment: as above; assay type: cell-based, human
Method: The MEA design and printed connections enabled access to 45 different electrodes inside the platform intermittently via a compatible sensor circuit (FIGS. 9A-9B). Spontaneous cardiac field potentials (FPs) were recorded from cardiac organoids using an integrated signal conditioning circuit (AD8232®), with a 2-pole adjustable high-pass filter, 3-pole adjustable low-pass filter, adjustable gain, and medical instrumentation amplifiers to extract, amplify, and filter the extracellular field potential of the organoids remotely within the confined well. […] Spontaneous cardiac field potentials were measured at 100 Hz sampling rate in each microwell. Field potential rhythm frequency was calculated in real-time using a custom-made MATLAB® software imposing Fourier Transformation (FFT) on the evolving kinetic data (FIGS. 9C-9D).
Real-time oxygen measurement was performed based on previously described elements. Briefly, phosphorescent ruthenium microprobes (CPOx-50-RuP) show a decrease in phosphorescence decay time as a function of oxygen concentration, allowing to measure the oxygen content. Controlled sinusoidal modulated 532-nm LED signal excites the embedded oxygen sensors and emits a sinusoidal amplitude-modulated light at 605 nm that is shifted in phase due to oxygen quenching. A phase shift is measured between the emission hardware-filtered first detector (PMT), and a second excitation detector (cPMT). […] Measurements were carried out at a 10 Hz sampling rate. Contraction rate and oxygen rhythm frequency were calculated in real-time using a custom-made MATLAB® software imposing Fourier Transformation (FFT) on the evolving kinetic data. Using custom MATLAB code, we calculated the cardiac organoid contraction rates directly from our oxygen reader based on the emission intensity measured in peak-to-peak voltage from the oxygen bead and its displacement using the second PMT system. Cardiac displacement was measured by the embedded oxygen beads inside the cardiac organoids during a contraction. When the beads move at different distances from the focal point, changes in peak-to-peak voltage occurred leading to the detection of the contraction behavior.
For simultaneous real-time oxygen, contraction rate, and field potential measurements, cardiac organoids were cultured in RPMI supplemented with B27 minus insulin, 5 ng/ml VEGF and 0.1% DMSO (control) or 10 μM KB-R7943 mesylate. Real-time oxygen, contraction rate, and field potential were measured after 0, 15, and 25 minutes of exposure to DMSO (control) or 10 μM KB-R7943 mesylate.

## CCCCN1CCCCC1C(=O)Nc1c(C)cccc1C (stereo not drawn) [Bupivacaine]
[1]
  Side effect (cardiac): ventricular arrhythmias, myocardial depression

## CS(=O)(=O)c1ccc(C2=C(c3ccccc3)C(=O)OC2)cc1 [Rofecoxib]
[1]
  Side effect (cardiac): myocardial infarction

## CC(C)(N)Cc1ccccc1 [Phentermine]
[1]
  Side effect (cardiac): valvular heart disease

## Cc1cn([C@H]2C[C@H](N=[N+]=[N-])[C@@H](CO)O2)c(=O)[nH]c1=O [Azidothymidine]
[1]
  Side effect (cardiac): dilated cardiomyopathy

## CC(C)(N)Cc1ccc(Cl)cc1 [Chlorphentermine]
[1]
  Side effect (cardiac): pulmonary heart disease

## CNC(=O)c1cc(Oc2ccc(NC(=O)Nc3ccc(Cl)c(C(F)(F)F)c3)cc2)ccn1 [Sorafenib]
[1]
  Side effect (cardiac): heart failure, myocardial ischemia, QT prolongation

## Ipilimumab
[1]
  Side effect (cardiac): lethal myocarditis

## COc1ccc2[nH]c([S+]([O-])Cc3ncc(C)c(OC)c3C)nc2c1 (stereo not drawn) [Omeprazole]
[1]
  Side effect (cardiac): acute myocardial infarction, heart failure

## Cn1c(=O)cc(N2CCC[C@@H](N)C2)n(Cc2ccccc2C#N)c1=O [Alogliptin]
[1]
  Side effect (cardiac): heart failure

## N=C(N)c1ccc(OCCCCCOc2ccc(C(=N)N)cc2)cc1 [Pentamidine]
[1]
  Side effect (cardiac): QT prolongation, arrhythmias

## Arsenic trioxide
[1]
  Side effect (cardiac): QT prolongation, tachycardia

## CC(=O)O[C@@]12CO[C@@H]1C[C@H](O)[C@@]1(C)C(=O)[C@H](O)C3=C(C)[C@@H](OC(=O)[C@H](O)[C@@H](NC(=O)OC(C)(C)C)c4ccccc4)C[C@@](O)([C@@H](OC(=O)c4ccccc4)[C@H]21)C3(C)C [Docetaxel]
[1]
  Side effect (cardiac): bradycardia, myocardial ischemia, heart failure

## COC(=O)[C@H]1[C@@H](OC(=O)c2ccccc2)C[C@@H]2CC[C@H]1N2C [Cocaine]
[1]
  Side effect (cardiac): left ventricular hypertrophy, arrhythmias

## COc1cccc2c1C(=O)c1c(O)c3c(c(O)c1C2=O)C[C@@](O)(C(C)=O)C[C@@H]3O[C@H]1C[C@H](N)[C@H](O)[C@H](C)O1 [Daunorubicin]
[1]
  Side effect (cardiac): arrhythmias, heart failure

## CC(CN(C)C)C(C)(O)Cc1ccc(Cl)cc1 (stereo not drawn) [Clobutinol]
[1]
  Side effect (cardiac): QT prolongation

## CN1C[C@H](C(=O)N[C@]2(C)O[C@@]3(O)[C@@H]4CCCN4C(=O)[C@H](Cc4ccccc4)N3C2=O)C=C2c3cccc4[nH]cc(c34)C[C@H]21 [Ergotamine]
[1]
  Side effect (cardiac): valvular heart disease

## COCC(=O)O[C@]1(CCN(C)CCCc2nc3ccccc3[nH]2)CCc2cc(F)ccc2[C@@H]1C(C)C [Mibefradil]
[1]
  Side effect (cardiac): QT prolongation

## CC(C)C[C@H](NC(=O)[C@H](Cc1ccccc1)NC(=O)c1cnccn1)B(O)O [Bortezomib]
[1]
  Side effect (cardiac): heart failure, arrhythmia

## COc1ccc(C(CN(C)C)C2(O)CCCCC2)cc1 (stereo not drawn) [Venlafaxine]
[1]
  Side effect (cardiac): QT prolongation, arrhythmias

## CC(CC(c1ccccc1)c1ccccc1)NC(C)(C)C (stereo not drawn) [Terodiline]
[1]
  Side effect (cardiac): ventricular tachycardia, cardiac death

## CC(=O)[C@]1(O)Cc2c(O)c3c(c(O)c2[C@@H](O[C@H]2C[C@H](N)[C@H](O)[C@H](C)O2)C1)C(=O)c1ccccc1C3=O [Idarubicin]
[1]
  Side effect (cardiac): arrhythmias, heart failure

## Nivolumab
[1]
  Side effect (cardiac): lethal myocarditis

## CCCN1C[C@H](CSC)C[C@@H]2c3cccc4[nH]cc(c34)C[C@H]21 [Pergolide]
[1]
  Side effect (cardiac): valvular heart disease

## Cc1nc(Nc2ncc(C(=O)Nc3c(C)cccc3Cl)s2)cc(N2CCN(CCO)CC2)n1 [Dasatinib]
[1]
  Side effect (cardiac): heart failure

## CN(CCOc1ccc(CC2SC(=O)NC2=O)cc1)c1ccccn1 (stereo not drawn) [Rosiglitazone]
[1]
  Side effect (cardiac): heart failure

## CCNC(C)Cc1cccc(C(F)(F)F)c1 (stereo not drawn) [Fenfluramine]
[1]
  Side effect (cardiac): valvular heart disease

## COc1cccc2c1C(=O)c1c(O)c3c(c(O)c1C2=O)C[C@@](O)(C(=O)CO)C[C@@H]3O[C@H]1C[C@H](N)[C@H](O)[C@H](C)O1 [Doxorubicin]
[1]
  Side effect (cardiac): arrhythmias, heart failure

## COc1cc(N)c(Cl)cc1C(=O)NC1CCN(CCCOc2ccc(F)cc2)CC1OC (stereo not drawn) [Cispapride]
[1]
  Side effect (cardiac): ventricular arrhythmia, QT prolongation, TdP, cardiac arrest

## CCN(CC)CC(=O)Nc1c(C)cccc1C [Lidocaine]
[1]
  Side effect (cardiac): bradycardia, cardiac arrest

## Cc1ccc2c(c1)C(=O)C1(O)CCN(c3ccccc3)C1=N2 (stereo not drawn) [Blebbistatin]
[2]
  effect on contraction: inhibits the contraction; also recorded: blocked cardiac contraction
  effect on field potential and interstitial oxygen oscillation frequency and intensity: does not affect the FPs or interstitial oxygen oscillations frequency and intensity; also recorded: did not affect the field potential or the oxygen oscillation frequency and intensity

## COc1cc(OC)c(C(=O)CCCN2CCCC2)c(OC)c1 [Buflomedil]
[1]
  Side effect (cardiac): QT prolongation, cardiac arrest

## O=C1NCCN1CCN1CCC(c2cn(-c3ccc(F)cc3)c3ccc(Cl)cc23)CC1 [Sertindole]
[1]
  Side effect (cardiac): QT prolongation, TdP, sudden cardiac death

## C[C@@H]1CN(c2c(F)c(N)c3c(=O)c(C(=O)O)cn(C4CC4)c3c2F)C[C@H](C)N1 [Sparfloxacin]
[1]
  Side effect (cardiac): QT prolongation

## NC1=N[C@H](O)[C@H]2[C@H]3O[C@]4(O)O[C@@H]([C@@H](O)[C@@]2(N1)[C@@H]4O)[C@]3(O)CO [Tetrodotoxin]
[3]
  effect on field potential generation, mechanical contraction (and oxygen oscillation): complete loss of field potential generation and associated mechanical contraction; also recorded: eliminated field potential generation, mechanical contraction, and oxygen oscillation
  effect on oxygen oscillation: decayed simultaneously with the field potential

## CC(C)OC(=O)[C@H](C)N[P@](=O)(OC[C@H]1O[C@@H](n2ccc(=O)[nH]c2=O)[C@](C)(F)[C@@H]1O)Oc1ccccc1 [Sofobuvir]
[1]
  Side effect (cardiac): Bradycardia

## O=C1Cc2cc(CCN3CCN(c4nsc5ccccc45)CC3)c(Cl)cc2N1 [Ziprasidone]
[1]
  Side effect (cardiac): QT prolongation, TdP, sudden cardiac death

## CCN[C@@H](C)Cc1cccc(C(F)(F)F)c1 [Dexfenfluramine]
[1]
  Side effect (cardiac): valvular heart disease

## COc1cc2c(Nc3ccc(Br)cc3F)ncnc2cc1OCC1CCN(C)CC1 [Vandetanib]
[1]
  Side effect (cardiac): long QT

## CS(=O)(=O)CCNCc1ccc(-c2ccc3ncnc(Nc4ccc(OCc5cccc(F)c5)c(Cl)c4)c3c2)o1 [Lapatinib]
[1]
  Side effect (cardiac): left ventricular ejection fraction, congestive heart failure

## CC[C@H]1OC(=O)[C@H](C)[C@@H](O[C@H]2C[C@@](C)(OC)[C@@H](O)[C@H](C)O2)[C@H](C)[C@@H](O[C@@H]2O[C@H](C)C[C@H](N(C)C)[C@H]2O)[C@](C)(OC)C[C@@H](C)C(=O)[C@H](C)[C@@H](O)[C@]1(C)O [Clarithromycin]
[1]
  Side effect (cardiac): QT prolongation, myocardial infarction, arrhythmias, cardiac death

## COc1ccc(C(=O)Nc2ccccc2CCC2CCCCN2C)cc1 (stereo not drawn) [Encainide]
[1]
  Side effect (cardiac): QT prolongation, TdP

## COc1ccc2cc([C@H](C)C(=O)O)ccc2c1 [Naproxen]
[1]
  Side effect (cardiac): myocardial infarction

## Cc1ccc(-c2ncc(Cl)cc2-c2ccc(S(C)(=O)=O)cc2)cn1 [Etoricoxib]
[1]
  Side effect (cardiac): thrombotic events

## CC[C@@H](CO)NC(=O)[C@@H]1C=C2c3cccc4c3c(cn4C)C[C@H]2N(C)C1 [Methysergide]
[1]
  Side effect (cardiac): valvular heart disease

## N.N.[Cl][Pt][Cl] [Cisplatin]
[1]
  Side effect (cardiac): arrhythmias, myocardial ischemia, heart failure

## CCN(CC)CCNC(=O)c1c(C)[nH]c(/C=C2\C(=O)Nc3ccc(F)cc32)c1C [Sunitinib]
[1]
  Side effect (cardiac): long QT, left ejection fraction, myocardial infarction

## O=c1[nH]cc(F)c(=O)[nH]1 [5-fluorouracil]
[1]
  Side effect (cardiac): arrhythmias, myocardial ischemia, heart failure

## CCCCCNC(=N)N/N=C/c1c[nH]c2ccc(OC)cc12 [Tegaserod]
[1]
  Side effect (cardiac): Ischemia

## COc1ccc(CCN2CCC(Nc3nc4ccccc4n3Cc3ccc(F)cc3)CC2)cc1 [Astemizole]
[1]
  Side effect (cardiac): long QT syndrome, TdP
